Measured values reported in patent US8551524B2, “Anti-diabetic combinations” (priority 2007, dated 2013).

Details: human, in vivo
Description: a. […] Laboratory results were then reviewed for these particular patients to determine which patients actually had clinically important changes in a given laboratory parameter.

Structure (SMILES)	patients with adverse events	clinically important decreases in any hematological parameter directly attributable to the drug	responsibility for clinically meaningful elevations in ALT and AST
CN(C)C(=N)N=C(N)N [metformin]	10%	–	–
N[C@@H](CC(=O)N1CCn2c(nnc2C(F)(F)F)C1)Cc1cc(F)c(F)cc1F [sitagliptin]	8%	No patient experienced clinically important decreases	not responsible for the variations
